Test results as given in patent US20090076136A1, “THERAPEUTIC AGENT” (priority 2003, published 2009).
Where two headings read alike, the source gives them in different places.

Key:
[1] = tested on: mature adipocytes (3T3-L1 cells); assay: Enhancing action on glucose uptake: 2-deoxyglucose uptake into mature adipocytes; format: cell-based
Method: The induction of differentiation into mature adipocytes was carried out by partially modifying the method of Rubin C. S. et al. (JBC. 253 7570-7578, 1978). 3T3-L1 cells (ATCC CCL-92.1) were suspended in a 10% calf serum (manufactured by ICN)-containing Dulbecco's modified Eagle's medium (manufactured by Sigma, D6046) containing 200 μM ascorbic acid so as to have a density of 4×10^3 cells/mL, and the suspension was put in each well of a 12-well microtiter plate in an amount of 2 mL per well. The cells were cultured at 37° C. for 7 days in the presence of 5% carbon dioxide gas. On the seventh day, the medium was exchanged with […] of a 10% fetal bovine serum (manufactured by GIBCO)-containing Dulbecco's modified Eagle's medium containing 200 μM ascorbic acid, 0.25 μM dexamethasone, 10 μg/mL insulin (manufactured by TAKARA BIO INC.) and 0.5 mM 3-isobutyl-1-methylxanthine (manufactured by Nacalai Tesque, Inc., 19624-86). After 45 hours, the medium was exchanged with 2 mL of a 10% fetal bovine serum-containing Dulbecco's modified Eagle's medium containing 200 μM ascorbic acid and 5 μg/mL insulin. The medium was exchanged on after 2 days and 5 days, and the cells were cultured for 7 days, to give mature adipocytes.
As the evaluation of enhancing action on glucose uptake, and also as the evaluation of insulin-mimetic action, the amount of 2-deoxyglucose uptake into mature adipocytes stimulated with the sample in the adipocytes was determined.
After the termination of the culture, the medium was removed, and the cells were washed twice with a 0.1% (w/v) bovine serum albumin (manufactured by Sigma, A8022)-containing Dulbecco's modified Eagle's medium. Thereafter, 1 mL of the same medium was put to each well. The cells were cultured overnight at 37° C. in the presence of 5% carbon dioxide gas. After the overnight culture, the cells were washed twice with a HEPES buffered saline (140 mM NaCl, 5 mM KCl, 2.5 mM MgSO4, 1 mM CaCl2, 20 mM HEPES-Na (pH 7.4)), and 0.9 mL of the same buffer was added thereto. The cells were cultured at 37° C. for 75 minutes. […] […] Thereafter, 100 μL of a HEPES buffered saline containing 2-deoxy-[1,2-^3H(N)]-glucose (manufactured by PerkinElmer Life Sciences Inc., NET549A) and 1 mM 2-deoxyglucose (manufactured by Nacalai Tesque, Inc., 10722-11) was added thereto at a final concentration of 0.5 μCi/mL, and the cells were further cultured at 37° C. for 10 minutes. After the termination of the culture, the supernatant was removed, the cells were washed three times with a phosphate buffer cooled to 4° C., and 0.5 mL of a 1% Nonidet P-40-containing phosphate buffer was added to lyse the cells, whereby 2-deoxy-[1,2-^3H(N)]-glucose taken into the cells was eluted. The radioactivity was determined with a liquid scintillation counter LS6500 (manufactured by Beckmann) using 25 μL of the supernatant with Ultima Gold (manufactured by PerkinElmer Life Sciences Inc., 6013329) as a scintillation cocktail.

[2] = tested on: mature adipocytes (3T3-L1 cells); assay: Synergistic enhancing action by polygodial and insulin on glucose uptake; format: cell-based; conditions: FIG. 21
Method: The amount of 2-deoxyglucose uptake into mature adipocytes stimulated with the sample in the adipocytes was determined partly in accordance with the method described in Example 1 as the evaluation of synergistic enhancing action by a low-concentration polygodial and a low-concentration insulin on glucose uptake.
The mature adipocytes were prepared according to the method described in Example 1.
After the termination of the culture, the medium was removed, and the cells were washed twice with a Dulbecco's modified Eagle's medium containing 0.1% (w/v) bovine serum albumin. Thereafter, the cells were cultured at 37° C. overnight in the presence of 5% carbonic dioxide gas. After the overnight culture, the cells were washed twice with a HEPES buffered saline (140 mM NaCl, 5 mM KCl, 2.5 mM MgSO4, 1 mM CaCl2, 20 mM HEPES-Na (pH 7.4)). The amount 0.9 mL of the same buffer was added thereto. The cells were cultured at 37° C. for 45 minutes. Subsequently, polygodial was added thereto so as to have a final concentration of 300 nM, and insulin was added thereto so as to have a final concentration of 0.05 μg/mL. The cells were further cultured for 30 minutes. […] In addition, a group without addition of the sample was used as a negative control. Thereafter, the amount of 2-deoxy-[1,2-^3H(N)]-glucose taken into the adipocytes was determined in the same manner as in the method described in Example 1.

[3] = tested on: glucose transporter (mature adipocytes); assay: Influence of cytochalasin B on 2-deoxyglucose uptake in mature adipocytes; format: cell-based
Method: Specifically, as a sample, there was set a group with addition of a dimethyl sulfoxide solution of polygodial so as to have a final concentration of 3 μM. […] Furthermore, in each group, there was set a group with addition of cytochalasin B (manufactured by Nacalai Tesque, Inc., 10435-81) so as to have a final concentration 40 μM at the same time as the time of addition of the sample and insulin. Thereafter, the amount of 2-deoxy-[1,2-^3H(N)]-glucose taken into the adipocytes was determined in the same manner.

[4] = tested on: KK-Ay mice
Method: Pathological amelioration of polygodial was examined using a type II diabetes model mice. Experiments were carried out with ten male 5-week old KK-Ay mice (CLEA Japan, Inc.) per group. Polygodial was dissolved in an olive oil so as to have a concentration of 0.03%, and the solution was forcibly orally administered to the mice once a day at 1 mg/kg weight for consecutive days. An olive oil was administered to each of mice in the control group at 3.3 mL/kg weight in the same manner. On the day before the beginning of administration and on the twenty-first day, blood was collected from the vein of mouse tails, and a blood glucose level was determined with a simple blood glucose meter, ACCU-CHEK Compact (manufactured by Roche Diagnostics K.K.). In addition, on the twenty-second day, blood was collected from the abdominal aorta, and the insulin concentration in serum was determined with Lebis Insulin Kit (manufactured by Shibayagi Co., Ltd.).

[5] = tested on: ICR mice; conditions: for Blood Glucose Level, Before Administration of Sample: ICR mice fasted 18 hours, Mean ± Standard Error; for Blood Glucose Level, Before Glucose Tolerance Test: 1 hour after
Method: After fasting the mice for 18 hours, polygodial was dissolved in an olive oil so as to have a concentration of 0.3%, and the solution was forcibly orally administered to the mice at 10 mg/kg weight. An olive oil was administered to each of mice in the control group at 3.3 mL/kg weight in the same manner. After 1 hour from the administration, a 20% glucose solution was administered at 2 g/kg weight. Here, the glucose was administered in two ways, forcible oral administration and intraperitoneal administration. Before administration of the sample, before the glucose tolerance test, and after given periods of time after the glucose tolerance test, blood was collected from the vein of mouse tails, and a blood glucose level was determined.

[6] = tested on: mouse; assay: Single-dose oral toxicity in mouse; format: in vivo; conditions: 1 g/kg weight
Method: No toxicity is found even when the above-mentioned effective ingredient used in the present invention is administered in an effective dose for the exhibition of its action.

[7] = 1 mg/kg weight orally once a day, KK-Ay mice
[8] = polygodial 10 mg/kg orally, glucose 2 g/kg by forcible oral administration
[9] = polygodial 10 mg/kg orally, glucose 2 g/kg by intraperitoneal administration

CC1(C)CCC[C@]2(C)[C@@H](C=O)C(C=O)=CC[C@@H]12 [polygodial]
2-deoxy-[1,2-3H(N)]-glucose uptake compared to the negative control ([1]; final concentration 3 μM, 1 μM, 0.3 μM or 0.1 μM, FIG. 1): enhancement of 2-deoxy-[1,2-^3H(N)]-glucose uptake was found | enhancing action on glucose uptake by simultaneous addition with insulin ([2]; polygodial 300 nM added simultaneously with insulin 0.05 μg/mL, versus either alone): synergistically increase | 2-deoxy-[1,2-3H(N)]-glucose uptake compared to the negative control ([2]; polygodial 300 nM alone): enhancement of 2-deoxy-[1,2-^3H(N)]-glucose uptake was found | 2-deoxy-[1,2-3H(N)]-glucose uptake compared to the negative control [3]: enhancement of 2-deoxy-[1,2-^3H(N)]-glucose uptake was found | mediation of the enhancing action on glucose uptake [3]: mediated by a glucose transporter | action of ameliorating insulin resistance [4, 7]: action of ameliorating insulin resistance was found | blood glucose level (in words) [4, 7]: lowered | insulin concentration (in words) [4, 7]: lowered | Blood Glucose Level, Twenty-First Day ([4]; 1 mg/kg weight orally once a day, twenty-first day, KK-Ay mice, Mean ± Standard Error): 231 ± 36 mg/dL | Insulin (concentration in serum) ([4]; 1 mg/kg weight orally once a day, twenty-second day, KK-Ay mice, Mean ± Standard Error): 8.4 ± 4 ng/mL | Blood Glucose Level, Previous Day ([4]; day before the beginning of administration, KK-Ay mice, Mean ± Standard Error): 328 ± 25 mg/dL | changes in weight and general symptoms ([4]; during the experimental period, 1 mg/kg weight orally once a day): no changes were found | Blood Glucose Level, Before Administration of Sample ([5]; glucose by forcible oral administration): 94 ± 7 mg/dL | Blood Glucose Level, Before Administration of Sample ([5]; glucose by intraperitoneal administration): 77 ± 4 mg/dL | Blood Glucose Level, Before Glucose Tolerance Test ([5]; polygodial 10 mg/kg orally, glucose by forcible oral administration): 126 ± 7 mg/dL | Blood Glucose Level, Before Glucose Tolerance Test ([5]; polygodial 10 mg/kg orally, glucose by intraperitoneal administration): 90 ± 7 mg/dL | Blood Glucose Level, 30 min. After Glucose Tolerance Test [5, 8]: 260 ± 15 mg/dL | Blood Glucose Level, 60 min. After Glucose Tolerance Test [5, 8]: 224 ± 18 mg/dL | Blood Glucose Level, 120 min. After Glucose Tolerance Test [5, 8]: 138 ± 9 mg/dL | Blood Glucose Level, 30 min. After Glucose Tolerance Test [5, 9]: 300 ± 56 mg/dL | Blood Glucose Level, 60 min. After Glucose Tolerance Test [5, 9]: 263 ± 34 mg/dL | Blood Glucose Level, 120 min. After Glucose Tolerance Test [5, 9]: 126 ± 10 mg/dL | Blood Glucose Level, 180 min. After Glucose Tolerance Test [5, 9]: 84 ± 5 mg/dL | action on the elevation in the blood glucose level (in words) ([5]; polygodial 10 mg/kg weight, both oral and intraperitoneal administrations of glucose): suppressive action | deaths after oral administration [6]: no cases of deaths are found

insulin
2-deoxy-[1,2-3H(N)]-glucose uptake compared to the negative control ([1]; positive control, final concentration 1 μg/mL): enhancement of 2-deoxy-[1,2-^3H(N)]-glucose uptake was found | 2-deoxy-[1,2-3H(N)]-glucose uptake compared to the negative control ([2]; insulin 0.05 μg/mL alone): enhancement of 2-deoxy-[1,2-^3H(N)]-glucose uptake was found | 2-deoxy-[1,2-3H(N)]-glucose uptake compared to the negative control ([3]; insulin 1 μg/mL, without cytochalasin B, FIG. 22): enhancement of 2-deoxy-[1,2-^3H(N)]-glucose uptake was found
